A short description of series [1]: Log P by HPLC on reversed phase columns (EEC directive 79/831 Annex V.A8). In kind it is physicochemical. As to conditions: for chromatographic logP: reversed phase HPLC columns. On the procedure: In the above tables, measurement of Log P values was performed according to EEC directive 79/831 Annex V.A8 by HPLC (High Performance Liquid Chromatography) on reversed phase columns with the following methods: • ^[a]
If more than one Log P value is available within the same method, all the values are given and separated by “+”.
Calibration was done with straight-chain alkan2-ones (with 3 to 16 carbon atoms) with known Log P values (measurement of Log P values using retention times with linear interpolation between successive alkanones). Lambda-max-values were determined using UV-spectra from 200 nm to 400 nm and the peak values of the chromatographic signals.

Series [2] has as its system Xanthomonas campestris pv. campestris. Kind of series: Xanthomonas campestris pv. campestris in vitro cell test (bacteria growth in liquid culture). In kind it is cell-based. As to conditions: 20 ppm of tested compound; 24 h of incubation. On the procedure:
Example A: Xanthomonas Campestris pv. Campestris In Vitro Cell Test
Culture medium: LB broth medium (Luria Broth Miller) Sigma
Inoculum: bacteria suspension
Compounds to be tested were solubilized in DMSO and the solution used to prepare the required range of concentrations. The final concentration of DMSO used in the assay was ≤1%.
Inoculum was prepared from a pre-culture of bacteria grown in liquid medium and diluted to the desired optical density (OD).
Compounds were evaluated for their ability to inhibit bacteria growth in liquid culture assay. The compounds were added in the desired concentrations to culture medium containing the bacteria suspension. After 24 h of incubation, the efficacy of compounds was determined by spectrometric measurement of bacteria growth. Inhibition was determined by comparing the absorbance values in wells containing the compounds with the absorbance in control wells without compounds.

Where [3] appears, read: method [a]: LC-UV, acidic range, 0.1% formic acid in water and acetonitrile as eluent.
[4] abbreviates: value given in preparation example, method variant not stated.

Consider `Cc1c(C(=O)N[C@H](C(=O)O)C(C)C)sc(Br)c1Br` (racemic) [I.07, N-[(4,5-dibromo-3-methyl-2-thienyl)carbonyl]-valine], for which the chromatographic logP in series [1] (setting [3]) and in series [1] (setting [4]) was 2.92 in each case. Moreover, the “direct activity (inhibition of bacteria growth)” value in series [2] is given as “no direct activity”.
For the molecule `CCOC(=O)C1(NC(=O)c2sc(Br)c(Br)c2C)CC1` [I.01, ethyl 1-{[(4,5-dibromo-3-methyl-2-thienyl)carbonyl]amino}cyclopropanecarboxylate], the chromatographic logP came out at 3.19 in series [1] (setting [3]) and 3.22 in series [1] (setting [4]). Moreover, the “direct activity (inhibition of bacteria growth)” value in series [2] was “no direct activity”.
For `CCOC(=O)CNC(=O)c1sc(Cl)c(Cl)c1C` [I.03, ethyl N-[(4,5-dichloro-3-methyl-2-thienyl)carbonyl]glycinate] the same measures were 2.9, 2.95 and “no direct activity”.
Consider `CCOC(=O)C(CC(C)C)NC(=O)c1sc(Br)c(Br)c1C` (stereo not drawn) [I.05], for which the LogP in series [1] (setting [3]) is 4.56^[a]. Besides, in series [2], the “direct activity (inhibition of bacteria growth)” value is reported as “no direct activity”.
For the molecule `Cc1c(C(=O)NC2(C(=O)O)CC2)sc(Br)c1Br` [I.06], the “direct activity (inhibition of bacteria growth)” value in series [2] is reported as “no direct activity”.
`CCOC(=O)[C@@H](NC(=O)c1sc(Br)c(Br)c1C)C(C)C` [I.08]: the LogP in series [1] (setting [3]) is 4.32^[a]. For the same molecule, the “direct activity (inhibition of bacteria growth)” value in series [2] is “no direct activity”.
Regarding `COC(=O)CNC(=O)c1sc(Br)c(Br)c1C` [I.09], the “direct activity (inhibition of bacteria growth)” value in series [2] is given as “no direct activity”.
For `Cc1c(C(=O)NCC(=O)O)sc(Br)c1Br` [I.10], in series [1] (setting [3]), the LogP was 2.05^[a]. In addition, the “direct activity (inhibition of bacteria growth)” value in series [2] is reported as “no direct activity”.
With `COC(=O)[C@@H](NC(=O)c1sc(Br)c(Br)c1C)C(C)C` [I.11], the LogP in series [1] (setting [3]) is 3.87^[a]. For the same molecule, in series [2], the “direct activity (inhibition of bacteria growth)” value is given as “no direct activity”.
Turning to `CC/C=C\CCOC(=O)C(NC(=O)c1sc(Br)c(Br)c1C)C(C)C` (stereo not drawn) [I.12], the “direct activity (inhibition of bacteria growth)” value in series [2] is “no direct activity”.
As to `C#CCOC(=O)C(NC(=O)c1sc(Br)c(Br)c1C)C(C)C` (stereo not drawn) [I.13], the LogP in series [1] (setting [3]) was 4.06^[a]. In addition, the “direct activity (inhibition of bacteria growth)” value in series [2] is listed as “no direct activity”.
For `Cc1c(C(=O)NC(C(=O)OCC(C)C)C(C)C)sc(Br)c1Br` (stereo not drawn) [I.14] the same measures were 5.22^[a] and “no direct activity”.
Turning to `Cc1c(C(=O)NC(C(=O)OCC#N)C(C)C)sc(Br)c1Br` (stereo not drawn) [I.15], the LogP in series [1] (setting [3]) is 3.69^[a]. In addition, the “direct activity (inhibition of bacteria growth)” value in series [2] is recorded as “no direct activity”.
The matching figures for `Cc1c(C(=O)NC(C(=O)OC2CSC2)C(C)C)sc(Br)c1Br` (stereo not drawn) [I.17]: 4.67^[a] and “no direct activity”.
Take `Cc1c(C(=O)NC(C(=O)OC2CS(=O)(=O)C2)C(C)C)sc(Br)c1Br` (stereo not drawn) [I.18]: the LogP in series [1] (setting [3]) is 3.42^[a]. For the same molecule, the “direct activity (inhibition of bacteria growth)” value in series [2] is given as “no direct activity”.
Consider `Cc1c(C(=O)NC(C(=O)OC2CCOC2)C(C)C)sc(Br)c1Br` (stereo not drawn) [I.19], for which the LogP in series [1] (setting [3]) was 3.78^[a]. The “direct activity (inhibition of bacteria growth)” value in series [2] is given as “no direct activity”.
For `Cc1c(C(=O)NC(C(=O)OC[Si](C)(C)C)C(C)C)sc(Br)c1Br` (stereo not drawn) [I.20] the same measures were 5.78^[a] and “no direct activity”.
For the molecule `CCOC(=O)C(C)NC(=O)c1sc(Br)c(Br)c1C` (stereo not drawn) [I.21], the LogP in series [1] (setting [3]) is 3.39^[a]. In addition, the “direct activity (inhibition of bacteria growth)” value in series [2] is recorded as “no direct activity”.
Consider `CC[C@H](C)[C@H](NC(=O)c1sc(Br)c(Br)c1C)C(=O)OC` [I.22], for which the “direct activity (inhibition of bacteria growth)” value in series [2] was “no direct activity”.
In the case of `CCOC(=O)C(Cc1ccc(O)cc1)NC(=O)c1sc(Br)c(Br)c1C` (stereo not drawn) [I.23], in series [1] (setting [3]), the LogP is 3.33^[a]. In addition, in series [2], the “direct activity (inhibition of bacteria growth)” value is “no direct activity”.
Regarding `CCOC(=O)[C@H](CCSC)NC(=O)c1sc(Cl)c(Cl)c1C` [I.24], the LogP in series [1] (setting [3]) is 3.94^[a]. In series [2], the “direct activity (inhibition of bacteria growth)” value is “no direct activity”.
As for `CCOC(=O)[C@@H](NC(=O)c1sc(Cl)c(Cl)c1C)C(C)C` [I.25], the “direct activity (inhibition of bacteria growth)” value in series [2] is “no direct activity”.
`CCOC(=O)[C@H](Cc1ccccc1)NC(=O)c1sc(Cl)c(Cl)c1C` [I.26]: the LogP in series [1] (setting [3]) is 4.46^[a]. Moreover, the “direct activity (inhibition of bacteria growth)” value in series [2] is “no direct activity”.
With `CCOC(=O)C(C)NC(=O)c1sc(Cl)c(Cl)c1C` (stereo not drawn) [I.27], the LogP in series [1] (setting [3]) is 3.31^[a]. Besides, in series [2], the “direct activity (inhibition of bacteria growth)” value was “no direct activity”.
The matching figures for `Cc1c(C(=O)NCC(=O)OC(C)(C)C)sc(Cl)c1Cl` [I.28]: 3.77^[a] and “no direct activity”.
Regarding `COC(=O)[C@@H](NC(=O)c1sc(Cl)c(Cl)c1C)C(C)C` [I.29], the LogP in series [1] (setting [3]) was 3.79^[a]. Further, in series [2], the “direct activity (inhibition of bacteria growth)” value was “no direct activity”.
Take `COC(=O)[C@H](CCSC)NC(=O)c1sc(Cl)c(Cl)c1C` [I.30]: the LogP in series [1] (setting [3]) was 3.55^[a]. The “direct activity (inhibition of bacteria growth)” value in series [2] is recorded as “no direct activity”.
Turning to `COC(=O)CNC(=O)c1sc(Cl)c(Cl)c1C` [I.31], the LogP in series [1] (setting [3]) was 2.51^[a]. Also, the “direct activity (inhibition of bacteria growth)” value in series [2] was “no direct activity”.
For the molecule `CC[C@H](C)[C@H](NC(=O)c1sc(Cl)c(Cl)c1C)C(=O)OC` [I.32], the “direct activity (inhibition of bacteria growth)” value in series [2] is on record as “no direct activity”.
Turning to `CCOC(=O)[C@H](CC(C)C)NC(=O)c1sc(Cl)c(Cl)c1C` [I.33], the LogP in series [1] (setting [3]) was 4.54^[a]. Moreover, the “direct activity (inhibition of bacteria growth)” value in series [2] is given as “no direct activity”.
As to `CCOC(=O)C(NC(=O)c1sc(Cl)c(Cl)c1C)C(C)C` (stereo not drawn) [I.40], the “direct activity (inhibition of bacteria growth)” value in series [2] was “no direct activity”.
On to `CCOC(=O)C(NC(=O)c1sc(Cl)c(Cl)c1C)C(C)C` (stereo not drawn) [I.44], for which the “direct activity (inhibition of bacteria growth)” value in series [2] is on record as “no direct activity”.
For `COC(=O)C1(NC(=O)c2sc(Cl)c(Cl)c2C)CC1` [I.50], the “direct activity (inhibition of bacteria growth)” value in series [2] is “no direct activity”.
With `Cc1c(C(=O)NC(C(=O)OCC2CC2)C(C)C)sc(Br)c1Br` (stereo not drawn) [I.52], the “direct activity (inhibition of bacteria growth)” value in series [2] is recorded as “no direct activity”.
Turning to `CCOC(=O)CNC(=O)c1sc(Cl)c(Cl)c1I` [VIa.12], the LogP in series [1] (setting [3]) is 3.31^[a].
On the same count and under the same terms, as for `O=C(O)CNC(=O)c1sc(Cl)c(Cl)c1I` [VIa.13], the figure is 2.21^[a]; as for `CCOC(=O)C(Cc1ccccc1)NC(=O)c1sc(Br)c(Br)c1I` (stereo not drawn) [VIa.14], 4.93^[a]; as for `CCOC(=O)C(CC(C)C)NC(=O)c1sc(Br)c(Br)c1I` (stereo not drawn) [VIa.15], 5.01^[a].
On to `CCOC(=O)C(CCSC)NC(=O)c1sc(Br)c(Br)c1I` (stereo not drawn) [VIa.16], for which the LogP in series [1] (setting [3]) was 4.37^[a].
Take `CCOC(=O)C(NC(=O)c1sc(Cl)c(Cl)c1Br)C(C)C` (stereo not drawn) [VIa.17]: the LogP in series [1] (setting [3]) was 4.88^[a].
Turning to `CCOC(=O)C(CC(C)C)NC(=O)c1sc(Cl)c(Cl)c1Br` (stereo not drawn) [VIa.18], in series [1] (setting [3]), the LogP is 5.17^[a].
Consider `CCOC(=O)C(CCSC)NC(=O)c1sc(Cl)c(Cl)c1Br` (stereo not drawn) [VIa.19], for which, in series [1] (setting [3]), the LogP was 4.46^[a].
As for `CCOC(=O)C(Cc1ccccc1)NC(=O)c1sc(Cl)c(Cl)c1Br` (stereo not drawn) [VIa.20], in series [1] (setting [3]), the LogP is 5.01^[a].
`CCOC(=O)C(NC(=O)c1sc(Cl)c(Cl)c1I)C(C)C` (stereo not drawn) [VIa.21]: the LogP in series [1] (setting [3]) is 4.85^[a].
The same measure, in the same setting: the same measure for `CCOC(=O)C(CC(C)C)NC(=O)c1sc(Cl)c(Cl)c1I` (stereo not drawn) [VIa.22]: 5.08^[a].
As for `CCOC(=O)C(CCSC)NC(=O)c1sc(Cl)c(Cl)c1I` (stereo not drawn) [VIa.23], the LogP in series [1] (setting [3]) is 4.40^[a].
Take `CCOC(=O)C(Cc1ccccc1)NC(=O)c1sc(Cl)c(Cl)c1I` (stereo not drawn) [VIa.24]: the LogP in series [1] (setting [3]) is 5.00^[a].
The same measure, in the same setting: the same measure for `CCOC(=O)c1sc(NC(=O)OC(C)(C)C)c(Br)c1C` [XIIIa.01]: 4.62^[a].
Turning to `Cc1c(C(=O)O)sc(NC(=O)OC(C)(C)C)c1Br` [XIIIa.02, 4-bromo-5-[(tert-butoxycarbonyl)amino]-3-methylthiophene-2-carboxylic acid], the chromatographic logP in series [1] (setting [3]) is 2.86.
For the molecule `CCOC(=O)C1(NC(=O)c2sc(NC(=O)OC(C)(C)C)c(Br)c2C)CC1` [XIa.01, ethyl 1-[({4-bromo-5-[(tert-butoxycarbonyl)amino]-3-methyl-2-thienyl}carbonyl)amino]cyclopropanecarboxylate], the chromatographic logP was 3.44 in series [1] (method [b]: LC-UV, neutral range, 0.001 molar ammonium acetate solution in water and acetonitrile as eluent); 3.28 in series [1] (setting [4]).
Consider `CCOC(=O)C1(NC(=O)c2sc(N)c(Br)c2C)CC1` [Xa.01, ethyl 1-{[(5-amino-4-bromo-3-methyl-2-thienyl)carbonyl]amino}cyclopropanecarboxylate], for which the chromatographic logP was 1.97 in series [1] (setting [3]) and 1.92 in series [1] (setting [4]).
Turning to `COC(=O)c1sc(Cl)c(Cl)c1N` [methyl 3-amino-4,5-dichlorothiophene-2-carboxylate], the chromatographic logP in series [1] (setting [4]) amounted to 3.11.

For the origin of these results see patent US11401254B2, “Substituted thiophenecarboxamides and analogues as antibacterials agents” (Bayer Aktiengesellschaft, priority 2018, dated 2022).
